# Earlier results as cited in patent publication US20130327676A1, “Packaging of Solid Pharmaceutical Preparations Containing the Active Substance Glyceryl Trinitrate” (G. Pohl-Boskamp GmbH & Co. KG, priority 2011, published 2013).
# Tests used:
# [1] = at 20° C.
smiles,measurement,setting,value
"O=[N+]([O-])OCC(CO[N+](=O)[O-])O[N+](=O)[O-] [GTN, glyceryl trinitrate]",vapor pressure,[1],0.25 Pa
same,active substance originally contained in the tablets found in the polyethylene,polyethylene sealing layer of the packaging material,84%
same,"active substance remaining in tablets following storage, of originally contained",tablets packaged individually in aluminum foil films with polyethylene sealing layer,less than 10%
